# Reference: PubChem BioAssay AID1918935 (Molecular Pharmacology Branch, DTP, NCI, 2023)
# System: 324938-238-R-J1-PDC complex spheroid viability
# Experiment: Anticancer human tumor 324938-238-R-J1-PDC patient-derived bladder carcinoma cell line growth inhibition
# Settings: for IC50: curve of first compound; for viability, T/C: stronger effect = lower value
# Method in brief: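 Complex spheroids of tumor cells with HUVEC and human MSCs, exposed to iadademstat combined with other agents. Each agent tested in half-log steps from near clinical Cmax (else 10 microM top), DMSO ≤0.25%.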
# [1] = second compound 0.1 µM, first compound 0.00949 µM
# [2] = second compound 0.1 µM, first compound 0.03 µM
# [3] = second compound 0.1 µM, first compound 0.0949 µM
# [4] = second compound 0.1 µM, first compound 0.3 µM
# [5] = second compound 0.316 µM, first compound 0.00949 µM
# [6] = second compound 0.316 µM, first compound 0.03 µM
# [7] = second compound 0.316 µM, first compound 0.0949 µM
# [8] = second compound 0.316 µM, first compound 0.3 µM
# [9] = second compound 1 µM, first compound 0.00949 µM
# [10] = second compound 1 µM, first compound 0.03 µM
# [11] = second compound 1 µM, first compound 0.0949 µM
# [12] = second compound 1 µM, first compound 0.3 µM
# [13] = second compound 3.16 µM, first compound 0.00949 µM
# [14] = second compound 3.16 µM, first compound 0.03 µM
# [15] = second compound 3.16 µM, first compound 0.0949 µM
# [16] = second compound 3.16 µM, first compound 0.3 µM
# [17] = second compound 10 µM, first compound 0.00949 µM
# [18] = second compound 10 µM, first compound 0.03 µM
# [19] = second compound 10 µM, first compound 0.0949 µM
# [20] = second compound 10 µM, first compound 0.3 µM
# 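Further: spheroids also contain HUVEC and human MSCs and agents combined with iadademstat; spheroids exposed to agents for 7 days before readout.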
smiles,measurement,setting,value
CCN(c1cc(-c2ccc(CN3CCOCC3)cc2)cc(C(=O)NCc2c(C)cc(C)[nH]c2=O)c1C)C1CCOCC1 + NC1CC1c1ccc(-c2cccc(O)c2)cc1,IC50,second compound 0.1 µM,> 3000 nM
same,IC50,second compound 0.316 µM,> 3000 nM
same,IC50,second compound 1 µM,> 3000 nM
same,IC50,second compound 3.16 µM,> 3000 nM
same,IC50,second compound 10 µM,> 3000 nM
same,"viability, T/C",[1],91.3%
same,"viability, T/C",[2],91.9%
same,"viability, T/C",[3],89.8%
same,"viability, T/C",[4],79.1%
same,"viability, T/C","second compound 0.1 µM, first compound 0.949 µM",89%
same,"viability, T/C","second compound 0.1 µM, first compound 3 µM",80.1%
same,"viability, T/C",[5],84.4%
same,"viability, T/C",[6],80.1%
same,"viability, T/C",[7],80.3%
same,"viability, T/C",[8],81.6%
same,"viability, T/C","second compound 0.316 µM, first compound 0.949 µM",85.1%
same,"viability, T/C","second compound 0.316 µM, first compound 3 µM",79.8%
same,"viability, T/C",[9],74.2%
same,"viability, T/C",[10],77.2%
same,"viability, T/C",[11],72.6%
same,"viability, T/C",[12],72.9%
same,"viability, T/C","second compound 1 µM, first compound 0.949 µM",76.9%
same,"viability, T/C","second compound 1 µM, first compound 3 µM",78.6%
same,"viability, T/C",[13],79%
same,"viability, T/C",[14],79.3%
same,"viability, T/C",[15],77.1%
same,"viability, T/C",[16],77.5%
same,"viability, T/C","second compound 3.16 µM, first compound 0.949 µM",76.6%
same,"viability, T/C","second compound 3.16 µM, first compound 3 µM",74.2%
same,"viability, T/C",[17],66.4%
same,"viability, T/C",[18],77%
same,"viability, T/C",[19],66.8%
same,"viability, T/C",[20],62.8%
same,"viability, T/C","second compound 10 µM, first compound 0.949 µM",66.5%
same,"viability, T/C","second compound 10 µM, first compound 3 µM",68.1%
Nc1ncn(C2CC(O)C(CO)S2)c(=O)n1 (stereo not given) + NC1CC1c1ccc(-c2cccc(O)c2)cc1,IC50,second compound 0.1 µM,16.4 nM
same,IC50,second compound 0.316 µM,13.3 nM
same,IC50,second compound 1 µM,8.37 nM
same,IC50,second compound 3.16 µM,14.4 nM
same,IC50,second compound 10 µM,9.28 nM
same,"viability, T/C","second compound 0.1 µM, first compound 0.000949 µM",84.5%
same,"viability, T/C","second compound 0.1 µM, first compound 0.003 µM",87.4%
same,"viability, T/C",[1],58.1%
same,"viability, T/C",[2],37.9%
same,"viability, T/C",[3],26.6%
same,"viability, T/C",[4],16.9%
same,"viability, T/C","second compound 0.316 µM, first compound 0.000949 µM",78.1%
same,"viability, T/C","second compound 0.316 µM, first compound 0.003 µM",70.5%
same,"viability, T/C",[5],54%
same,"viability, T/C",[6],36.9%
same,"viability, T/C",[7],29%
same,"viability, T/C",[8],16%
same,"viability, T/C","second compound 1 µM, first compound 0.000949 µM",63.4%
same,"viability, T/C","second compound 1 µM, first compound 0.003 µM",59.2%
same,"viability, T/C",[9],48.4%
same,"viability, T/C",[10],38.1%
same,"viability, T/C",[11],28%
same,"viability, T/C",[12],16.8%
same,"viability, T/C","second compound 3.16 µM, first compound 0.000949 µM",67.2%
same,"viability, T/C","second compound 3.16 µM, first compound 0.003 µM",62%
same,"viability, T/C",[13],55.2%
same,"viability, T/C",[14],41.1%
same,"viability, T/C",[15],32.2%
same,"viability, T/C",[16],17.5%
same,"viability, T/C","second compound 10 µM, first compound 0.000949 µM",62.9%
same,"viability, T/C","second compound 10 µM, first compound 0.003 µM",57.5%
same,"viability, T/C",[17],48.8%
same,"viability, T/C",[18],42.3%
same,"viability, T/C",[19],29.1%
same,"viability, T/C",[20],25%
O=C(C=Cn1cnc(-c2cc(C(F)(F)F)cc(C(F)(F)F)c2)n1)NNc1cnccn1 + NC1CC1c1ccc(-c2cccc(O)c2)cc1,IC50,second compound 0.1 µM,< 3.16 nM
same,IC50,second compound 0.316 µM,< 3.16 nM
same,IC50,second compound 1 µM,< 3.16 nM
same,IC50,second compound 3.16 µM,< 3.16 nM
same,IC50,second compound 10 µM,< 3.16 nM
same,"viability, T/C","second compound 0.1 µM, first compound 0.00316 µM",46%
same,"viability, T/C","second compound 0.1 µM, first compound 0.01 µM",26.3%
same,"viability, T/C","second compound 0.1 µM, first compound 0.0316 µM",14.1%
same,"viability, T/C","second compound 0.1 µM, first compound 0.1 µM",4.16%
same,"viability, T/C","second compound 0.1 µM, first compound 0.316 µM",3%
same,"viability, T/C","second compound 0.1 µM, first compound 1 µM",1.86%
same,"viability, T/C","second compound 0.316 µM, first compound 0.00316 µM",42.2%
same,"viability, T/C","second compound 0.316 µM, first compound 0.01 µM",27%
same,"viability, T/C","second compound 0.316 µM, first compound 0.0316 µM",14.2%
same,"viability, T/C","second compound 0.316 µM, first compound 0.1 µM",5.76%
same,"viability, T/C","second compound 0.316 µM, first compound 0.316 µM",2.95%
same,"viability, T/C","second compound 0.316 µM, first compound 1 µM",1.73%
same,"viability, T/C","second compound 1 µM, first compound 0.00316 µM",36.1%
same,"viability, T/C","second compound 1 µM, first compound 0.01 µM",25.1%
same,"viability, T/C","second compound 1 µM, first compound 0.0316 µM",13.8%
same,"viability, T/C","second compound 1 µM, first compound 0.1 µM",5.75%
same,"viability, T/C","second compound 1 µM, first compound 0.316 µM",2.87%
same,"viability, T/C","second compound 1 µM, first compound 1 µM",2.29%
same,"viability, T/C","second compound 3.16 µM, first compound 0.00316 µM",38.3%
same,"viability, T/C","second compound 3.16 µM, first compound 0.01 µM",27.7%
same,"viability, T/C","second compound 3.16 µM, first compound 0.0316 µM",15.4%
same,"viability, T/C","second compound 3.16 µM, first compound 0.1 µM",6%
same,"viability, T/C","second compound 3.16 µM, first compound 0.316 µM",2.83%
same,"viability, T/C","second compound 3.16 µM, first compound 1 µM",2.25%
same,"viability, T/C","second compound 10 µM, first compound 0.00316 µM",42.1%
same,"viability, T/C","second compound 10 µM, first compound 0.01 µM",30.2%
same,"viability, T/C","second compound 10 µM, first compound 0.0316 µM",20.4%
same,"viability, T/C","second compound 10 µM, first compound 0.1 µM",11.6%
same,"viability, T/C","second compound 10 µM, first compound 0.316 µM",5.72%
same,"viability, T/C","second compound 10 µM, first compound 1 µM",2.7%
